Laboratory results: ChEMBL document CHEMBL4507264, “Data for DCP probe BAY-7598” (2021)
The source made the active and inactive calls. The rule behind the calls is not given here.

What was measured:
[1] = target: Macrophage metalloelastase (Homo sapiens, UniProt P39900); assay: Biochemical assay (MMP12)
[2] = system: Tyrosine-protein kinase ABL1 (Homo sapiens), P00519 [M351T]; conditions: Compound concentration 1000.0 nM
[3] = system: Tyrosine-protein kinase ABL1 (Homo sapiens), P00519 [Q252H]; conditions: Compound concentration 1000.0 nM
[4] = system: Tyrosine-protein kinase ABL1 (Homo sapiens), P00519 [T315I]; conditions: Compound concentration 1000.0 nM
[5] = target: RAC-beta serine/threonine-protein kinase (Homo sapiens) (UniProt P31751); conditions: Compound concentration 1000.0 nM
[6] = target: Tyrosine-protein kinase BTK (Homo sapiens) (UniProt Q06187); conditions: Compound concentration 1000.0 nM
[7] = target: Cyclin-dependent kinase 4 (Homo sapiens) (UniProt P11802); conditions: Compound concentration 1000.0 nM
[8] = target: Casein kinase I isoform gamma-3 (Homo sapiens) (UniProt Q9Y6M4); conditions: Compound concentration 1000.0 nM
[9] = target: Ephrin type-A receptor 5 (Homo sapiens) (UniProt P54756); conditions: Compound concentration 1000.0 nM
[10] = target: Mitogen-activated protein kinase 3 (Homo sapiens) (UniProt P27361); conditions: Compound concentration 1000.0 nM
[11] = target: Mitogen-activated protein kinase 6 (Homo sapiens) (UniProt Q16659); conditions: Compound concentration 1000.0 nM
[12] = system: Receptor-type tyrosine-protein kinase FLT3 (Homo sapiens), P36888 [D835Y]; conditions: Compound concentration 1000.0 nM
[13] = system: Receptor-type tyrosine-protein kinase FLT3 (Homo sapiens), P36888 [UNDEFINED MUTATION]; conditions: Compound concentration 1000.0 nM
[14] = target: Vascular endothelial growth factor receptor 3 (Homo sapiens) (UniProt P35916); conditions: Compound concentration 1000.0 nM
[15] = system: eIF-2-alpha kinase GCN2 (Homo sapiens), Q9P2K8 [S808G]; conditions: Compound concentration 1000.0 nM
Chain of eIF-2-alpha kinase GCN2 (Homo sapiens), Q9P2K8 [S808G] (Q9P2K8 whole entry S808G): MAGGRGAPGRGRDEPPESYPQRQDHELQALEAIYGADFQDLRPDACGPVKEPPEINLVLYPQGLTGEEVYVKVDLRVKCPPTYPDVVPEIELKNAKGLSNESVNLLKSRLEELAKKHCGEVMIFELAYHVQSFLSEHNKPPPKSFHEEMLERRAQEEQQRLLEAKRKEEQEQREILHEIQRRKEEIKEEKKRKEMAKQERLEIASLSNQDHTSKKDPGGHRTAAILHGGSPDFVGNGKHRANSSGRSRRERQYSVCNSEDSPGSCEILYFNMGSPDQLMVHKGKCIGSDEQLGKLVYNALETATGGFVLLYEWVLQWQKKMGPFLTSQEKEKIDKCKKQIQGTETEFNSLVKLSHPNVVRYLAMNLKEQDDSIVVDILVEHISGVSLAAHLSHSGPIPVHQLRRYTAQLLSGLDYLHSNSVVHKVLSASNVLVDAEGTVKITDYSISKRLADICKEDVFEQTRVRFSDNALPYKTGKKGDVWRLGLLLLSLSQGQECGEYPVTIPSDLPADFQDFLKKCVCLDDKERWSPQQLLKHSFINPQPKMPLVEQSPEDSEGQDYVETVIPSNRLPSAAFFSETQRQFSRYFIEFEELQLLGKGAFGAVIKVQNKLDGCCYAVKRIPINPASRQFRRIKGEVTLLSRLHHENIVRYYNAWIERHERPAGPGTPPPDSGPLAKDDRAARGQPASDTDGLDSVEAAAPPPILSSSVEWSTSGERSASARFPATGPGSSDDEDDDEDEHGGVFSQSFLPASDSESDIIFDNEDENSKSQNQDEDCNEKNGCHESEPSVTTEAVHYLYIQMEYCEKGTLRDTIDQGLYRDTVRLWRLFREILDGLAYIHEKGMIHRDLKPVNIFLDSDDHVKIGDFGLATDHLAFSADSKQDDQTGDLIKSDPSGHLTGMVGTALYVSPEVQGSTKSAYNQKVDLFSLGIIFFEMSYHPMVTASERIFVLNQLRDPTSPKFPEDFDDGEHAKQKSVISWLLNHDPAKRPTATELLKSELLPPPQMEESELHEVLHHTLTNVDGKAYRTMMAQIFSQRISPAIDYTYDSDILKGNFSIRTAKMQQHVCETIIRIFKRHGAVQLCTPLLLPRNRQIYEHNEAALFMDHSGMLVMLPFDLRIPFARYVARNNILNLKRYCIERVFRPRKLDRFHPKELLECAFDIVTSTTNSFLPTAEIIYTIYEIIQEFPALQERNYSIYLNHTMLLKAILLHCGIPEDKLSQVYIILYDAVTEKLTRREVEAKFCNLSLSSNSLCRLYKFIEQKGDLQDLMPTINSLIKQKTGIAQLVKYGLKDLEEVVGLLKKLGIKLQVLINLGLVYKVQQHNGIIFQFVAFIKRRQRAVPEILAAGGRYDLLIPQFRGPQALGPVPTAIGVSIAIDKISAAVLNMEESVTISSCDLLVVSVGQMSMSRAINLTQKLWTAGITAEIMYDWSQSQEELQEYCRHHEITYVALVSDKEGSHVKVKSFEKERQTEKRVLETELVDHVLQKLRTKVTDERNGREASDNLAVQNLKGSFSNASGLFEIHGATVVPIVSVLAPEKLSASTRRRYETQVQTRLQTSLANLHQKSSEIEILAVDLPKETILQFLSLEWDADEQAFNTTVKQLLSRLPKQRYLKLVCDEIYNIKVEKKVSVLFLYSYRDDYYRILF

[16] = target: Homeodomain-interacting protein kinase 1 (Homo sapiens) (UniProt Q86Z02); conditions: Compound concentration 1000.0 nM
[17] = target: Insulin receptor (Homo sapiens) (UniProt P06213); conditions: Compound concentration 1000.0 nM
[18] = system: Mast/stem cell growth factor receptor Kit (Homo sapiens), P10721 [D816H]; conditions: Compound concentration 1000.0 nM
Chain of Mast/stem cell growth factor receptor Kit (Homo sapiens), P10721 [D816H] (P10721 whole entry D816H): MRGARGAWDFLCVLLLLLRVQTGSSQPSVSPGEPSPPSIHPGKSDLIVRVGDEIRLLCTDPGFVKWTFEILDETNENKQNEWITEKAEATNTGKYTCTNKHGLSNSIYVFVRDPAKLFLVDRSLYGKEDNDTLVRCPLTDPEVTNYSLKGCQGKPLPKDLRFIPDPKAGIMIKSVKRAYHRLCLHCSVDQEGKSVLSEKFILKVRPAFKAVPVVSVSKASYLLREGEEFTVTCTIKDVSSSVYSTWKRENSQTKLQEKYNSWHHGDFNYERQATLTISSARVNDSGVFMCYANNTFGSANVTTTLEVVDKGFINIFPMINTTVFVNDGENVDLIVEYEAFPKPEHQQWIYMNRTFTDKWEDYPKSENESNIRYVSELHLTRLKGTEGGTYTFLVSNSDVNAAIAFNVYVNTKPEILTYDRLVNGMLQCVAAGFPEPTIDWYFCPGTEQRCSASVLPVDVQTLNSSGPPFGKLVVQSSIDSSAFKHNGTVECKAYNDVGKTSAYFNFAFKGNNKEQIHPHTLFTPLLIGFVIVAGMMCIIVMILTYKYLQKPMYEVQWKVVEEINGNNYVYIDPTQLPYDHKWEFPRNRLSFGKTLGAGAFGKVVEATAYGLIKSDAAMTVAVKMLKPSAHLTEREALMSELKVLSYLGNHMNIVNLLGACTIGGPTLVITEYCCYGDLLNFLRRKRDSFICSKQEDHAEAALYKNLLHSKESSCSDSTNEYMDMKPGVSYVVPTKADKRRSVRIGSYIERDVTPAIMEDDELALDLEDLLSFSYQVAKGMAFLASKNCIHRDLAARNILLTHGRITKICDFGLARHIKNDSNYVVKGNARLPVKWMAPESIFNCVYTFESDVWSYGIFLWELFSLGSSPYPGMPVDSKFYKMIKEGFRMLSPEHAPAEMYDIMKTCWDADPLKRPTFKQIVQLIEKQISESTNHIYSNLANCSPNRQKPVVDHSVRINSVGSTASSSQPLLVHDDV

[19] = system: Mast/stem cell growth factor receptor Kit (Homo sapiens), P10721 [V559D]; conditions: Compound concentration 1000.0 nM
Chain of Mast/stem cell growth factor receptor Kit (Homo sapiens), P10721 [V559D] (P10721 whole entry V559D): as the sequence (P10721 whole entry D816H) above, with V559D, H816D counted along it

[20] = system: Mast/stem cell growth factor receptor Kit (Homo sapiens), P10721 [V559D,V654A]; conditions: Compound concentration 1000.0 nM
Chain of Mast/stem cell growth factor receptor Kit (Homo sapiens), P10721 [V559D,V654A] (P10721 whole entry V559D/V654A): as the sequence (P10721 whole entry D816H) above, with V559D, V654A, H816D counted along it

[21] = target: Mast/stem cell growth factor receptor Kit (Homo sapiens) (UniProt P10721); conditions: Compound concentration 1000.0 nM
Chain of Mast/stem cell growth factor receptor Kit (Homo sapiens) (P10721 whole entry): as the sequence (P10721 whole entry D816H) above, with H816D counted along it

[22] = target: Hepatocyte growth factor receptor (Homo sapiens) (UniProt P08581); conditions: Compound concentration 1000.0 nM
[23] = target: Serine/threonine-protein kinase Nek2 (Homo sapiens) (UniProt P51955); conditions: Compound concentration 1000.0 nM
[24] = target: Calcium-dependent protein kinase 1 (Plasmodium falciparum) (UniProt P62344); conditions: Compound concentration 1000.0 nM
[25] = target: Serine/threonine-protein kinase PLK2 (Homo sapiens) (UniProt Q9NYY3); conditions: Compound concentration 1000.0 nM
[26] = target: Serine/threonine-protein kinase PRP4 homolog (Homo sapiens) (UniProt Q13523); conditions: Compound concentration 1000.0 nM
Chain of Serine/threonine-protein kinase PRP4 homolog (Homo sapiens) (Q13523 whole entry): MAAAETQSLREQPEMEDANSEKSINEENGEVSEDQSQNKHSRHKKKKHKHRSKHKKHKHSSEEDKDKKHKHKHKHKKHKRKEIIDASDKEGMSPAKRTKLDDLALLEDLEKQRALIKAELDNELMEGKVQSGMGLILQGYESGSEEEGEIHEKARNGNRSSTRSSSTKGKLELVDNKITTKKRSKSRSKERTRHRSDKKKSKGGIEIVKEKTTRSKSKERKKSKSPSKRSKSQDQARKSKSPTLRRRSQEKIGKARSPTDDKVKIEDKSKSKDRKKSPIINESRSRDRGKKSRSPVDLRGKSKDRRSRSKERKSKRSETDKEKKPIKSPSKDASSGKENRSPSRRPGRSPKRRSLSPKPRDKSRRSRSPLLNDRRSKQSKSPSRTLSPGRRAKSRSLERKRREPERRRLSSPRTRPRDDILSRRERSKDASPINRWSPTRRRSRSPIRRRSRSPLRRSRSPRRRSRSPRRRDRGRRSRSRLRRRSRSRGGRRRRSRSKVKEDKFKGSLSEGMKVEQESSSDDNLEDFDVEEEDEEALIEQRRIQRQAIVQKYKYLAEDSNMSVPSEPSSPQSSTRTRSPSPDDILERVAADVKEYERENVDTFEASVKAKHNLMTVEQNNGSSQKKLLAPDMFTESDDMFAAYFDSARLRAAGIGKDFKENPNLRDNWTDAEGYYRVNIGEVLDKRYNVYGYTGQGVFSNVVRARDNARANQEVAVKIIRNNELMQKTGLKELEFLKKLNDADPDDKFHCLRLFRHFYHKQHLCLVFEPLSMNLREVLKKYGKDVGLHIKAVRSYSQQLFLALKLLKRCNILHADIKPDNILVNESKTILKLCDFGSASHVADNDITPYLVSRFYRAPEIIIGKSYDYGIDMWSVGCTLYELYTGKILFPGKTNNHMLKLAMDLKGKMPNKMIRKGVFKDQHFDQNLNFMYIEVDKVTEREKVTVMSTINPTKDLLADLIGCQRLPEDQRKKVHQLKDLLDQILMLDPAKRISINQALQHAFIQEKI

[27] = target: Ribosomal protein S6 kinase alpha-2 (Homo sapiens) (UniProt Q15349); conditions: Compound concentration 1000.0 nM
Chain of Ribosomal protein S6 kinase alpha-2 (Homo sapiens) (Q15349 whole entry): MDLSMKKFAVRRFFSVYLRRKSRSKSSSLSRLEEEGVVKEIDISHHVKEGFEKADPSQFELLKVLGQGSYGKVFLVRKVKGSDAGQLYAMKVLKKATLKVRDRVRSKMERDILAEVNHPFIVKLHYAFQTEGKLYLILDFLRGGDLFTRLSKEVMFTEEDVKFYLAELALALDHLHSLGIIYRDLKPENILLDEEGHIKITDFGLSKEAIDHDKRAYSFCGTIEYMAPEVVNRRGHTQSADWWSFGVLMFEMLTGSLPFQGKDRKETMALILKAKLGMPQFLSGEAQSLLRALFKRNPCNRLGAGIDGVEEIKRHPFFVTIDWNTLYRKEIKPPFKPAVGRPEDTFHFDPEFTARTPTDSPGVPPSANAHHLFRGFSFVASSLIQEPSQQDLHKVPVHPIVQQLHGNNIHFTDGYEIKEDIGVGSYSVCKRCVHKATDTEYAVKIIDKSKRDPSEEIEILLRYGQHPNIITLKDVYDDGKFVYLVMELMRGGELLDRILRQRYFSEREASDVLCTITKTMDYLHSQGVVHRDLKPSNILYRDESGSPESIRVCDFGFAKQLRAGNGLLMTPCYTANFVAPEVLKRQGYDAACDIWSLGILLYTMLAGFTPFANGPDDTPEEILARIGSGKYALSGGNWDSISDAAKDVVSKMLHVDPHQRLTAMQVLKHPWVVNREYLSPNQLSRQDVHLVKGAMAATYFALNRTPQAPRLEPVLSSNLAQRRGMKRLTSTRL

[28] = target: Ribosomal protein S6 kinase alpha-2 (Homo sapiens) (UniProt Q15349); conditions: Compound concentration 1000.0 nM; remark: listed apart in the source
[29] = target: Mitogen-activated protein kinase kinase kinase 7 (Homo sapiens) (UniProt O43318); conditions: Compound concentration 1000.0 nM
[30] = target: Serine/threonine-protein kinase tousled-like 1 (Homo sapiens) (UniProt Q9UKI8); conditions: Compound concentration 1000.0 nM
[31] = target: Serine/threonine-protein kinase WNK3 (Homo sapiens) (UniProt Q9BYP7); conditions: Compound concentration 1000.0 nM
[32] = target: Serine/threonine-protein kinase WNK4 (Homo sapiens) (UniProt Q96J92); conditions: Compound concentration 1000.0 nM
[33] = target: D(1B) dopamine receptor (Homo sapiens) (UniProt P21918); conditions: Compound concentration 10.0 uM
[34] = target: Sodium-dependent noradrenaline transporter (Homo sapiens) (UniProt P23975); conditions: Compound concentration 10.0 uM
[35] = target: Histamine H3 receptor (Homo sapiens) (UniProt Q9Y5N1); conditions: Compound concentration 10.0 uM
[36] = target: Alpha-1B adrenergic receptor (Homo sapiens) (UniProt P35368); conditions: Compound concentration 10.0 uM
[37] = target: Alpha-2B adrenergic receptor (Homo sapiens) (UniProt P18089); conditions: Compound concentration 10.0 uM
[38] = target: T1, Alpha-1D adrenergic receptor (Homo sapiens) (UniProt P25100); conditions: Compound concentration 10.0 uM
T1 sequence (whole entry): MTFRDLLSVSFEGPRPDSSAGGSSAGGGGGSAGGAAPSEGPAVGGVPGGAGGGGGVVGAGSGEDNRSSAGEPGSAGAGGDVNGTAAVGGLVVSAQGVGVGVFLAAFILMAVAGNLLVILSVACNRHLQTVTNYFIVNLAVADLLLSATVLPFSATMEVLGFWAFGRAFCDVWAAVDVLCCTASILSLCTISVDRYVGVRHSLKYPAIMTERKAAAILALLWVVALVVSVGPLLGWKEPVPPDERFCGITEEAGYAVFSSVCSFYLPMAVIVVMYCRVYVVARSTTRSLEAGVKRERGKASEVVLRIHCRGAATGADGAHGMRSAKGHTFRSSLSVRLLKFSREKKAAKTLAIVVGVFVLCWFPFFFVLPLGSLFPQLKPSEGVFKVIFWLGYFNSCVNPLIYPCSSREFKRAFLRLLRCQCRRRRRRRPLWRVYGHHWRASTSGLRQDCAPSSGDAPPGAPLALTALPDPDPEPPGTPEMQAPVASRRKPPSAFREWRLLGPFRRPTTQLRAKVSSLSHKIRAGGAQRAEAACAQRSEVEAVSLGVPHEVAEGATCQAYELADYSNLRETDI

Chain of Macrophage metalloelastase (P39900 whole entry): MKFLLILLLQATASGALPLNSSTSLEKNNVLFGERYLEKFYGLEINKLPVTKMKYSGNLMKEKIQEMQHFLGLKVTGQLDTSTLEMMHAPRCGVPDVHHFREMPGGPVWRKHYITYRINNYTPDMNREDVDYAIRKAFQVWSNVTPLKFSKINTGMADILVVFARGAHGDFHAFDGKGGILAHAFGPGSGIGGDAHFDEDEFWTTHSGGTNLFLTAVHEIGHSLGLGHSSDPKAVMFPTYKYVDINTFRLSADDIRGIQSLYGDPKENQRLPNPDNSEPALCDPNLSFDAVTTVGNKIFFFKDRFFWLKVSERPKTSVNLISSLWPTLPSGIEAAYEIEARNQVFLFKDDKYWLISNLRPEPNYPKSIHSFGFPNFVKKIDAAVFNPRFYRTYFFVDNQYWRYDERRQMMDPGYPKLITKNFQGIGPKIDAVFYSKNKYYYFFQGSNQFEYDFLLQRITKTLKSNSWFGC

Structure (SMILES) | IC50 [1] | residual activity [2] [%] | residual activity [3] [%] | residual activity [4] [%] | residual activity [5] [%] | residual activity [6] [%] | residual activity [7] [%] | residual activity [8] [%] | residual activity [9] [%] | residual activity [10] [%] | residual activity [11] [%] | residual activity [12] [%] | residual activity [13] [%] | residual activity [14] [%] | residual activity [15] [%] | residual activity [16] [%] | residual activity [17] [%] | residual activity [18] [%] | residual activity [19] [%] | residual activity [20] [%] | further results
O=C(O)[C@@H]1[C@@H](Cn2nnc3ccccc3c2=O)CC[C@H]1C(=O)c1ccc(OCCC2CCOCC2)cc1 [BAY-694] | 80 nM (not active) | 95 | 92 | 100 | 100 | 100 | 96 | 100 | 94 | 100 | 100 | 100 | 100 | 100 | 100 | 91 | 85 | 68 | 100 | 94 | residual activity [21]: 89%; residual activity [22]: 100%; residual activity [23]: 100%; residual activity [24]: 100%; residual activity [25]: 92%; residual activity [26]: 80%; residual activity [27]: 96%; residual activity [28]: 100%; residual activity [29]: 86%; residual activity [30]: 100%; residual activity [31]: 100%; residual activity [32]: 75%; inhibition [33]: 19.6%; inhibition [34]: -7.25%; inhibition [35]: 4.06%; inhibition [36]: 6.29%; inhibition [37]: 8.62%; inhibition [38]: 0.08%
O=C(O)[C@H]1[C@H](Cn2nnc3ccccc3c2=O)CC[C@@H]1C(=O)c1ccc(OCCC2CCOCC2)cc1 [BAY-7598] | 0.085 nM (active) | 82 | 83 | 79 | 88 | 100 | 89 | 100 | 100 | 94 | 90 | 96 | 83 | 81 | 55 | 100 | 78 | 80 | 100 | 100 | residual activity [21]: 95%; residual activity [22]: 94%; residual activity [23]: 100%; residual activity [24]: 100%; residual activity [25]: 100%; residual activity [26]: 67%; residual activity [27]: 90%; residual activity [28]: 78%; residual activity [29]: 100%; residual activity [30]: 96%; residual activity [31]: 100%; residual activity [32]: 91%; inhibition [33]: 7.53%; inhibition [34]: -0.42%; inhibition [35]: -2.95%; inhibition [36]: 7.47%; inhibition [37]: 3.34%; inhibition [38]: 0.59%
